Source: PubChem BioAssay AID1963447 (Molecular Pharmacology Branch, DTP, NCI, 2024)

System: 885512-296-R-J2-PDC complex spheroid growth, % test/control
Assay: Anticancer human tumor 885512-296-R-J2-PDC patient-derived breast carcinoma cell line growth inhibition [Asc]
Conditions: for IC50: curve of first compound; for viability, T/C: stronger effect = lower value
Method in brief: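 Tumor cells were grown as multicellular spheroids with stromal HUVEC and mesenchymal stem cells and treated singly or in combination. Concentrations fell in half-log steps from the clinical Cmax, or from 10 microM where none was known.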

[1] = second compound 0.1 µM, first compound 0.00316 µM
[2] = second compound 0.1 µM, first compound 0.01 µM
[3] = second compound 0.1 µM, first compound 0.0316 µM
[4] = second compound 0.1 µM, first compound 0.1 µM
[5] = second compound 0.1 µM, first compound 0.316 µM
[6] = second compound 0.1 µM, first compound 1 µM
[7] = second compound 0.316 µM, first compound 0.00316 µM
[8] = second compound 0.316 µM, first compound 0.01 µM
[9] = second compound 0.316 µM, first compound 0.0316 µM
[10] = second compound 0.316 µM, first compound 0.1 µM
[11] = second compound 0.316 µM, first compound 0.316 µM
[12] = second compound 0.316 µM, first compound 1 µM
[13] = second compound 1 µM, first compound 0.00316 µM
[14] = second compound 1 µM, first compound 0.01 µM
[15] = second compound 1 µM, first compound 0.0316 µM
[16] = second compound 1 µM, first compound 0.1 µM
[17] = second compound 1 µM, first compound 0.316 µM
[18] = second compound 1 µM, first compound 1 µM
[19] = second compound 3.16 µM, first compound 0.00316 µM
[20] = second compound 3.16 µM, first compound 0.01 µM
[21] = second compound 3.16 µM, first compound 0.0316 µM
[22] = second compound 3.16 µM, first compound 0.1 µM
[23] = second compound 3.16 µM, first compound 0.316 µM
[24] = second compound 3.16 µM, first compound 1 µM
[25] = second compound 10 µM, first compound 0.00316 µM
[26] = second compound 10 µM, first compound 0.01 µM
[27] = second compound 10 µM, first compound 0.0316 µM
[28] = second compound 10 µM, first compound 0.1 µM
[29] = second compound 10 µM, first compound 0.316 µM
[30] = second compound 10 µM, first compound 1 µM
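Further: spheroids exposed to compounds for seven days.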
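Wherever viability, T/C is given: 100% = DMSO vehicle control wells.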

Row | IC50 (second compound 0.1 µM) [nM] | IC50 (second compound 0.316 µM) [nM] | IC50 (second compound 1 µM) [nM] | IC50 (second compound 3.16 µM) [nM] | IC50 (second compound 10 µM) [nM] | SMILES | viability, T/C [1] [%] | viability, T/C [2] [%] | viability, T/C [3] [%] | viability, T/C [4] [%] | viability, T/C [5] [%] | viability, T/C [6] [%] | viability, T/C [7] [%] | viability, T/C [8] [%] | viability, T/C [9] [%] | viability, T/C [10] [%] | viability, T/C [11] [%] | viability, T/C [12] [%] | viability, T/C [13] [%] | viability, T/C [14] [%] | viability, T/C [15] [%] | further results
1 | > 1000 | > 1000 | > 1000 | > 1000 | > 1000 | CCN1CCN(Cc2ccc(Nc3ncc(F)c(-c4cc(F)c5nc(C)n(C(C)C)c5c4)n3)nc2)CC1 + Cc1c(S(C)(=O)=O)c(-c2cc(F)cc(N3CCN(c4ccc(NS(=O)(=O)c5ccc(NC(CCN6CCC(C(=O)OCCCP(=O)(O)O)CC6)CSc6ccccc6)c(S(=O)(=O)C(F)(F)F)c5)cc4)CC3)c2)c(-c2ccc(Cl)cc2)n1C(C)C | 85.9 | 104 | 89.3 | 71.7 | 65.5 | 61 | 102 | 89.9 | 83.3 | 68.3 | 66.1 | 65 | 92.6 | 91.5 | 76 | viability, T/C [16]: 76.3%; viability, T/C [17]: 67.8%; viability, T/C [18]: 69.1%; viability, T/C [19]: 90.8%; viability, T/C [20]: 83.5%; viability, T/C [21]: 92.6%; viability, T/C [22]: 89%; viability, T/C [23]: 72.5%; viability, T/C [24]: 61.9%; viability, T/C [25]: 118%; viability, T/C [26]: 116%; viability, T/C [27]: 108%; viability, T/C [28]: 126%; viability, T/C [29]: 125%; viability, T/C [30]: 113%
2 | 263 | 255 | 238 | 224 | 247 | COc1c(OCCCN2CCOCC2)ccc2c3n(c(=NC(=O)c4cnc(N)nc4)nc12)CCN3 + Cc1c(S(C)(=O)=O)c(-c2cc(F)cc(N3CCN(c4ccc(NS(=O)(=O)c5ccc(NC(CCN6CCC(C(=O)OCCCP(=O)(O)O)CC6)CSc6ccccc6)c(S(=O)(=O)C(F)(F)F)c5)cc4)CC3)c2)c(-c2ccc(Cl)cc2)n1C(C)C | 95.2 | 87.2 | 95.9 | 69.3 | 47 | 4.94 | 91.2 | 93.5 | 79.3 | 79 | 43.2 | 5.3 | 98.8 | 101 | 84 | viability, T/C [16]: 70.2%; viability, T/C [17]: 43.9%; viability, T/C [18]: 5.16%; viability, T/C [19]: 92.4%; viability, T/C [20]: 87.5%; viability, T/C [21]: 77.5%; viability, T/C [22]: 73.5%; viability, T/C [23]: 40%; viability, T/C [24]: 5.34%; viability, T/C [25]: 117%; viability, T/C [26]: 112%; viability, T/C [27]: 96.2%; viability, T/C [28]: 81%; viability, T/C [29]: 40.7%; viability, T/C [30]: 4.02%
